This is an account of results in US9718792B2, “Isoxazoline hydroxamic acid derivatives as LpxC inhibitors” (priority 2014, dated 2017).

Values after ≈ are worked out from the molar mass of the structure shown.

One experiment concerns the target P. aeruginosa LpxC (Pseudomonas aeruginosa (strain ATCC 15692 / DSM 22644 / CIP 104116 / JCM 14847 / LMG 12228 / 1C / PRS 101 / PAO1), UniProt P47205). Put plainly: P. aeruginosa LpxC Inhibition Assay. It counts as biochemical. Particulars: 1 nM P. aeruginosa LpxC, 2 μM substrate, LC-MS/MS; read-out: PA LpxC IC50. The text has this:
The P. aeruginosa LpxC protein is produced according to the general method of Hyland et al (Journal of Bacteriology 1997 179, 2029-2037: Cloning, expression and purification of UDP-3-O-acyl-GIcNAc deacetylase from Pseudomonas aeruginosa: a metalloamidase of the lipid A biosynthesis pathway). The LC-MS/MS method for quantitation of LpxC product was developed using an Agilent 1200 Capillary HPLC system coupled to an Applied Biosystems MDS Sciex 4000QTRAP mass spectrometer. Both instruments are controlled using the Applied Biosystems MDS Sciex Analyst software. LpxC reaction product (UDP-3-O—(R-3-hydroxyacyl)-glucosamine) was produced by hydrolysis of LpxC substrate catalyzed by P.a. LpxC and purified using reversed phase chromatography on a Phenomenex Luna C18(2) 4.6×50 mm column. An LpxC product calibration curve was generated to evaluate the sensitivity and dynamic range of the LC-MS/MS method. Briefly, compounds are pre-incubated with 1 nM P. aeruginosa LpxC for 30 min. at room temperature. Reactions are initiated by the addition of 2 μM UDP-3-O—(R-3-hydroxydecanoyl)-GIcNAc. Reactions are conducted in a 384-well plate with a total volume of 50 μL in each well containing 50 mM Sodium phosphate pH 7.5, 0.005% Trition X-100 for 20 min at room temperature. After quenching with 1.8% HOAc (5 μL of a 20% HOAc added to each well), reaction mixtures are analyzed using the LC-MS/MS method and peak areas are transformed into product concentration using a LpxC product calibration curve. Total activity (0% inhibition control) is obtained from reactions with no inhibitors and 100% inhibition control is the background using quenched samples before reaction starts. For IC50 determinations, peak areas are converted to percent inhibition in Microsoft Excel. Percent inhibition values are plotted vs. log compound concentration using XLfit. Data is fit to the four-parameter logistic equation using the non-linear regression algorithm in XLfit to return the IC50 and hill slope values.

In another experiment the test system is P. aeruginosa PAO1. Description: Susceptibility Testing (MIC, broth microdilution). It counts as cell-based, Pseudomonas aeruginosa. Particulars: P. aeruginosa PAO1, broth microdilution, 20 hours; for MIC: Pseudomonas aeruginosa, PAO1, 20 h, read-out: PAO1 MIC. On the procedure:
Bacterial isolates were cultivated from −70° C. frozen stocks by two consecutive overnight passages at 35° C. in ambient air on 5% blood agar (Remel, Lenexa, Kans.). Quality control and P. aeruginosa ATCC 27853) is from the American Type Culture Collection (ATCC; Rockville, Md.) and PAO1 was received from Dr. K. Poole.
Minimal Inhibitory Concentrations (MICs) were determined by the broth microdilution method in accordance with Clinical and Laboratories Institute (CLSI) guidelines. In brief, fresh bacterial overnight cultures were resuspended in sterile saline, adjusted to a 0.5 McFarland turbidity standard and then diluted […] in cation adjusted Mueller-Hinton Broth II (MHB; Remel BBL) to yield a final inoculum of approximately 5×10^5 colony-forming units (CFU)/mL. Two-fold serial dilutions of compounds were prepared in 100% dimethyl sulfoxide (DMSO) at 100-fold the highest final assay concentration; the resulting dilution series of compounds were diluted 1:10 with sterile water. Ten μl of the drug dilution series in 10% DMSO was transferred to microtiter wells and 90 μl of bacterial suspension was inoculated into the wells. All inoculated microdilution trays were incubated in ambient air at […] for 20 hours. Following incubation, assay plates were read in a microtiter plate reader at 600 nm and visually inspected to confirm the MIC endpoint well with the OD value. The lowest concentration of the compound that prevented visible growth was recorded as the MIC. Performance of the assay was monitored by testing ciprofloxacin against laboratory quality control strains in accordance with guidelines of the CLSI.
In general terms: Dilution methods test growth across graded concentrations, often in twofold steps.

One may read the IC50 as the concentration needed to halve the response being measured. For orientation: MIC means the lowest concentration that inhibits growth of the organism. For `COC[C@H](O)Cc1ccc(-c2ccc(C3=NO[C@@H](C[C@](C)(C(=O)NO)S(C)(=O)=O)C3)cc2)cc1` [Compound 60, (R)—N-hydroxy-3-((R)-3-(4′-((R)-2-hydroxy-3-methoxypropyl)-[1,1′-biphenyl]-4-yl)-4,5-dihydroisoxazol-5-yl)-2-methyl-2-(methylsulfonyl)propanamide], the IC50 on P. aeruginosa LpxC is below 500 pM. Moreover, in the experiment with P. aeruginosa PAO1, the MIC was 0.25 µg/mL (≈ 0.51 µM).

Take `CC(C)(C#N)c1ccc(-c2ccc(C3=NO[C@@H](C[C@](C)(C(=O)NO)S(C)(=O)=O)C3)cc2)cc1` [Compound 69, (R)-3-((R)-3-(4′-(2-cyanopropan-2-yl)-[1,1′-biphenyl]-4-yl)-4,5-dihydroisoxazol-5-yl)-N-hydroxy-2-methyl-2-(methylsulfonyl)propanamide]: the IC50 on P. aeruginosa LpxC was below 500 pM. Also, the MIC in the experiment with P. aeruginosa PAO1 came to 0.71 µg/mL (≈ 1.51 µM). Turning to `C[C@@](C[C@H]1CC(c2ccc(-c3ccc(CCO)cc3)c(F)c2)=NO1)(C(=O)NO)S(C)(=O)=O` [Compound 102, (R)-3-((R)-3-(2-fluoro-4′-(2-hydroxyethyl)-[1,1′-biphenyl]-4-yl)-4,5-dihydroisoxazol-5-yl)-N-hydroxy-2-methyl-2-(methylsulfonyl)], at P. aeruginosa LpxC, the IC50 is below 500 pM. Besides, the MIC in the experiment with P. aeruginosa PAO1 was determined as 0.18 µg/mL (≈ 0.388 µM). For the molecule `CC#Cc1ccc(C2=NO[C@@H](C[C@](C)(C(=O)NO)S(C)(=O)=O)C2)cc1` [Compound 2-A, (R)—N-hydroxy-2-methyl-2-(methylsulfonyl)-3-((R)-3-(4-(prop-1-yn-1-yl)phenyl)-4,5-dihydroisoxazol-5-yl)propanamide], on P. aeruginosa LpxC, the IC50 was 800 pM. The MIC with P. aeruginosa PAO1 came out at 0.25 µg/mL (≈ 0.686 µM). For `C[C@@H](O)c1ccc(-c2ccc(C3=NO[C@@H](C[C@](C)(C(=O)NO)S(C)(=O)=O)C3)cc2)cc1` [Compound 49, (R)—N-hydroxy-3-((R)-3-(4′-((R)-1-hydroxyethyl)-[1,1′-biphenyl]-4-yl)-4,5-dihydroisoxazol-5-yl)-2-methyl-2-(methylsulfonyl)] the same measures were 1000 pM and 0.25 µg/mL (≈ 0.56 µM). For `C[C@@H](O)Cc1ccc(-c2c(F)cc(C3=NO[C@@H](C[C@](C)(C(=O)NO)S(C)(=O)=O)C3)cc2F)cc1` [Compound 122, (R)-3-((R)-3-(2,6-difluoro-4′-((R)-2-hydroxypropyl)-[1,1′-biphenyl]-4-yl)-4,5-dihydroisoxazol-5-yl)-N-hydroxy-2-methyl-2-(methylsulfonyl)propanamide] the same measures were below 500 pM and 0.5 µg/mL (≈ 1.01 µM). On to `CC(CC1CC(c2ccc(C#CC3CC3)cc2F)=NO1)(C(=O)NO)S(C)(=O)=O` (single isomer, unassigned) [Compound 17-B, 3-(3-(4-(cyclopropylethynyl)-2-fluorophenyl)-4,5-dihydroisoxazol-5-yl)-N-hydroxy-2-methyl-2-(methylsulfonyl)propanamide], for which the IC50 at P. aeruginosa LpxC was below 500 pM. Further, in the experiment with P. aeruginosa PAO1, the MIC was 0.5 µg/mL (≈ 1.22 µM). Take `C[C@@](C[C@H]1CC(c2ccc(C#CC3CC3)cc2)=NO1)(C(=O)NO)S(C)(=O)=O` [Compound 6-A, (R)-3-((R)-3-(4-(cyclopropylethynyl)phenyl)-4,5-dihydroisoxazol-5-yl)-N-hydroxy-2-methyl-2-(methylsulfonyl)propanamide]: the IC50 on P. aeruginosa LpxC was 700 pM. For the same molecule, the MIC with P. aeruginosa PAO1 was determined as 0.25 µg/mL (≈ 0.64 µM).

Regarding `C[C@@](C[C@H]1CC(c2ccc(-c3ccc([C@H](O)CO)cc3)cc2)=NO1)(C(=O)NO)S(C)(=O)=O` [Compound 94, (R)-3-((R)-3-(4′-((S)-1,2-dihydroxyethyl)-[1,1′-biphenyl]-4-yl)-4,5-dihydroisoxazol-5-yl)-N-hydroxy-2-methyl-2-(methylsulfonyl)propanamide], the IC50 at P. aeruginosa LpxC is below 500 pM. The minimal inhibitory concentration (MIC) in the experiment with P. aeruginosa PAO1 came out at 0.25 µg/mL (≈ 0.541 µM).

As for `CCC#Cc1ccc(C2=NOC(CC(C)(C(=O)NO)S(C)(=O)=O)C2)cc1` (single isomer, unassigned) [Compound 8-B, 3-(3-(4-(but-1-yn-1-yl)phenyl)-4,5-dihydroisoxazol-5-yl)-N-hydroxy-2-methyl-2-(methylsulfonyl)propanamide], the IC50 on P. aeruginosa LpxC was 500 pM. Also, the MIC in the experiment on P. aeruginosa PAO1 came out at 1 µg/mL (≈ 2.64 µM). For “(R)-3-((R)-3-(2-fluoro-4′-((R)-2-hydroxypropyl)-[1,1′-biphenyl]-4-yl)-4,5-dihydroisoxazol-5-yl)-N-hydroxy-2-methyl-2-(methylsulfonyl)propanamide [Compound 107]”, on P. aeruginosa LpxC, the IC50 came out at 500 pM. Also, the “PAO1 MIC” value in the experiment with P. aeruginosa PAO1 was found to be 0.25 µg/mL. For the molecule `CC(C)c1cc(-c2ccc(C3=NO[C@@H](C[C@](C)(C(=O)NO)S(C)(=O)=O)C3)cc2F)ccn1` [Compound 112, (R)-3-((R)-3-(3-fluoro-4-(2-isopropylpyridin-4-yl)phenyl)-4,5-dihydroisoxazol-5-yl)-N-hydroxy-2-methyl-2-(methylsulfonyl)propanamide], the IC50 at P. aeruginosa LpxC was below 500 pM. The MIC in the experiment with P. aeruginosa PAO1 came to 1 µg/mL (≈ 2.16 µM).

On to `C[C@@H](O)COc1ccc(-c2ccc(C3=NO[C@@H](C[C@](C)(C(=O)NO)S(C)(=O)=O)C3)cc2)cc1` [Compound 61, (R)—N-hydroxy-3-((R)-3-(4′-((R)-2-hydroxypropoxy)-[1,1′-biphenyl]-4-yl)-4,5-dihydroisoxazol-5-yl)-2-methyl-2-(methylsulfonyl)propanamide], for which the MIC with P. aeruginosa PAO1 was 0.25 µg/mL (≈ 0.525 µM).

`C[C@@](C[C@H]1CC(c2ccc(-c3ccc(C(O)CO)cc3)cc2)=NO1)(C(=O)NO)S(C)(=O)=O` (stereo partly drawn) [Compound 72, (2R)-3-((5R)-3-(4′-(1,2-dihydroxyethyl)-[1,1′-biphenyl]-4-yl)-4,5-dihydroisoxazol-5-yl)-N-hydroxy-2-methyl-2-(methylsulfonyl)propanamide]: the MIC with P. aeruginosa PAO1 was determined as 0.35 µg/mL (≈ 0.757 µM).

As to `COc1cc(-c2ccc(C3=NO[C@@H](C[C@](C)(C(=O)NO)S(C)(=O)=O)C3)cc2)c(F)cn1` [Compound 80, (R)-3-((R)-3-(4-(5-fluoro-2-methoxypyridin-4-yl)phenyl)-4,5-dihydroisoxazol-5-yl)-N-hydroxy-2-methyl-2-(methylsulfonyl) propanamide], in the experiment on P. aeruginosa PAO1, the MIC came to 1 µg/mL (≈ 2.21 µM). As to `COc1ccc(-c2ccc(C3=NO[C@@H](C[C@](C)(C(=O)NO)S(C)(=O)=O)C3)cc2F)cn1` [Compound 105, (R)-3-((R)-3-(3-fluoro-4-(6-methoxypyridin-3-yl)phenyl)-4,5-dihydroisoxazol-5-yl)-N-hydroxy-2-methyl-2-(methylsulfonyl)propanamide], the IC50 on P. aeruginosa LpxC came out at 1000 pM. Take `C[C@@](C[C@H]1CC(c2ccc(-c3ccc(C4(CO)CC4)cc3)cc2)=NO1)(C(=O)NO)S(C)(=O)=O` [Compound 73, (R)—N-hydroxy-3-((R)-3-(4′-(1-(hydroxymethyl)cyclopropyl)-[1,1′-biphenyl]-4-yl)-4,5-dihydroisoxazol-5-yl)-2-methyl-2-(methylsulfonyl)propanamide]: in the experiment on P. aeruginosa PAO1, the MIC came out at 0.25 µg/mL (≈ 0.529 µM).

Turning to `C[C@@](C[C@H]1CC(c2ccc(C#Cc3ccc([C@@H](O)CO)cc3)cc2)=NO1)(C(=O)NO)S(C)(=O)=O` [Compound 97, (R)-3-((R)-3-(4-((4-((R)-1,2-dihydroxyethyl)phenyl)ethynyl)phenyl)-4,5-dihydroisoxazol-5-yl)-N-hydroxy-2-methyl-2-(methylsulfonyl) propanamide], the MIC in the experiment on P. aeruginosa PAO1 was 0.71 µg/mL (≈ 1.46 µM).

On to `C[C@@](C[C@H]1CC(c2ccc(-c3ccc(CO)nc3)c(F)c2)=NO1)(C(=O)NO)S(C)(=O)=O` [Compound 109, (R)-3-((R)-3-(3-fluoro-4-(6-(hydroxymethyl)pyridin-3-yl)phenyl)-4,5-dihydroisoxazol-5-yl)-N-hydroxy-2-methyl-2-(methylsulfonyl)propanamide], for which the IC50 at P. aeruginosa LpxC is 5000 pM.
